The data set can be described thus: Solubility profile (free acid in HCl/NaOH solution, supernatants assayed by HPLC). The class given is physicochemical. The procedure: A solubility profile for [1-(4-tert-butylbenzyl)-5-(3-methylphenyl)-1H-indol-3-yl](oxo)acetic acid was generated using the free acid in HCl/NaOH solution (See FIG. 3). Solutions were centrifuged after 24 hours equilibration (2 hours for pH<4 to avoid degradation) and the supernatants were assayed by HPLC.

For `Cc1cccc(-c2ccc3c(c2)c(C(=O)C(=O)O)cn3Cc2ccc(C(C)(C)C)cc2)c1` [[1-(4-tert-Butylbenzyl)-5-(3-methylphenyl)-1H-indol-3-yl](oxo)acetic acid], the pH-solubility profile result (above pH 4 up to pH 8, free acid in HCl/NaOH, 24 hours equilibration) is recorded as “solubility increases with increasing pH” and the pH-solubility profile entry (above pH 8, precipitation of the sodium salt) is listed as “solubility decreases”. Where the note is “pH<4, the stomach condition, 2 hours equilibration”, the solubility result is “poor solubility”. The aqueous solubility result (upon ionization in aqueous media) is “approximately 24 uG/mL”.

The record behind these values is US20080188543A1, “PHARMACEUTICAL COMPOSITIONS CONTAINING SUBSTITUTED INDOLE ACID DERIVATIVES AS INHIBITORS OF PLASMINOGEN ACTIVATOR INHIBITOR-1 (PAI-1)” (Wyeth, priority 2007, published 2008).
